Consider one substance from PMC11087051, “Large-scale deorphanization of Nematostella vectensis neuropeptide G protein-coupled receptors supports the independent expansion of bilaterian and cnidarian peptidergic systems” (eLife, 2024).

One assay relates to QGRFa.R070 (R70, GPR70). Briefly: GPCR deorphanization dose-response assay (HEK293, G5A luminescence). The format is cell-based, Nematostella vectensis. The note with it: drc fit. On the procedure: (§1) To experimentally identify Nematostella neuropeptide GPCRs, we tested our selection of 161 N. vectensis GPCRs in a pharmacological assay for activation by peptides from our peptide library (Figure 3A, Supplementary files 3 and 8). We expressed the candidate GPCRs in mammalian cells, together with a promiscuous Gqi protein and a luminescent G5A reporter (Figure 3A, Supplementary file 7). The peptides were separated into different mixes (Supplementary file 3), which were then tested on each GPCR (Supplementary file 4). Receptor-mix combinations that gave a positive signal were further resolved by testing the individual peptides of the mix to identify the activating ligand (Supplementary file 4). […]
(§2) A detailed step-by-step protocol has been published in [Thiel et al., 2023]. […] For each well, 10 µl OptiMEM (without FBS), 70 ng of GPCR containing plasmid, 70 ng of Gqi5/9 plasmid, 10–20 ng of G5A plasmid (to increase luminescence values of our HEK293 cell line), and 0.45–0.48 µl T5000/PEI were mixed and incubated for 20 min at room temperature. […] Readings were performed with a FlexStation 3 Multi-mode Microplate reader (Molecular Devices), for a period of 60 s per well, ligand injection after 15–18 s, and the whole plate was read with the Flex option. […] The readout data for the final dose-response curves is provided in Supplementary file 9 and as .csv files in the repository in the data folder. […]

Assay [1] has as its system QITRFa.R196 (R196, GPR196). The description is as above. As to conditions: drc fit. The format is cell-based, Nematostella vectensis. As for the experimental part:
as §1, §2

“pyrQITRFamide [synthetic N. vectensis RFamide neuropeptide pyrQITRFamide]”: the “Slope of the dose-response curve” value in the assay with QGRFa.R070 (R70, GPR70) was -1.343; in assay [1], -0.6635.
